Laboratory results from patent publication US20200297601A1, “COMPOSITION FOR SKIN MOISTURIZATION OR SKIN WHITENING, CONTAINING PENTACYCLIC TRITERPENE CAFFEIC ACID ESTERS” (AMOREPACIFIC CORPORATION, priority 2016, published 2020).

Test system: filaggrin
Test: Immunofluorescent staining and imaging of filaggrin in artificial skin
Type: cell-based
Conditions: artificial skin (AmoreReskin) surface treated for 4 days, FIG. 3
Experimental: The skin moisturizing effect of Example 1 and Example 4 was evaluated by immunofluorescent staining and imaging of filaggrin which is known as an important skin moisturizing factor.
The surface of artificial skin (AmoreReskin™) was treated with 2 ppm ceramide PC 104, Example 1 and Example 4 for 4 days and then immunofluorescent staining was conducted. The immunofluorescent staining was conducted as follows.
i. Artificial skin is immersed in OCT solution (optimal cutting temperature, Tissue Tek) and stored at −70° C.
ii. The artificial skin is prepared into 10-μm thick sections using a cryotome and fixed on a slide.
iii. Lines are drawn around the artificial skin sections using a PAP pen.
iv. The slide is dried at room temperature for at least 8 hours.
v. The artificial skin sections are washed with PBS and […] in OCT solution.
vi. The artificial skin sections are treated with a blocking solution (1% BSA in PBS) for 30 minutes.
vii. The sections are treated with anti-filaggrin antibody (ab24584, Abcam) for 2 hours.
viii. The sections are treated with Texas Red anti-rabbit antibody (T6391, Life technologies) diluted to 1:200 in a blocking solution for 1 hour.
ix. The sections are stained with DAPI (4′,6-diamidino-2-phenylindole) for 5 minutes.
x. The sections are washed with PBS 3 times.
xi. […]

3β,23,28-Trihydroxy-12-oleanene 23-caffeate [Example 1]
filaggrin protein (immunofluorescence): significantly increased
